In patent US10448639B2, “Fungicidal pyrazoles” (FMC CORPORATION, priority 2009, dated 2019):

What was measured:
[1] = system: Puccinia recondita f. sp. tritici; experiment: Test H: wheat leaf rust, curative spray on inoculated wheat seedlings, visual disease rating; conditions: for Test H rating (% disease control): wheat leaf rust, 100 = 100% disease control; for pest or weed control at 200 µg/mL: 144 h, read-out: Test H rating (% disease control)
[2] = system: Alternaria solani; experiment: Test C: tomato early blight, preventive spray on tomato seedlings, visual disease rating; conditions: for Test C rating (% disease control): tomato early blight, 100 = 100% disease control; for pest or weed control at 200 µg/mL: Alternaria solani, in Solanum lycopersicum, 168 h, read-out: Test C rating (% disease control)
Source text: General protocol for preparing test suspensions for Tests A-J: the test compounds were first dissolved in acetone in an amount equal to 3% of the final volume and then suspended at the desired concentration (in ppm) in acetone and purified water (50/50 mix by volume) containing 250 ppm of the surfactant Trem® 014 (polyhydric alcohol esters). The resulting test suspensions were then used in Tests A-J. Spraying a 200 ppm test suspension to the point of run-off on the test plants was the equivalent of a rate of 500 g/ha. Unless otherwise indicated, the rating values indicate a 200 ppm test suspension was used. (An asterisk “*” next to the rating value indicates a 40 ppm test suspension was used.)
The test suspension was sprayed to the point of run-off on tomato seedlings. The following day the seedlings were inoculated with a spore suspension of Alternaria solani (the causal agent of tomato early blight) and incubated in a saturated atmosphere at 27° C. for 48 h, and then moved to a growth chamber at 20° C. for 5 days, after which time visual disease ratings were made.

[3] = system: Botrytis cinerea; experiment: Test B: tomato Botrytis, preventive spray on tomato seedlings, visual disease rating; conditions: for Test B rating (% disease control): tomato Botrytis, 100 = 100% disease control; for pest or weed control at 200 µg/mL: Botrytis cinerea, in Solanum lycopersicum, 120 h, read-out: Test B rating (% disease control)
[4] = system: Septoria nodorum; experiment: Test F: Septoria glume blotch, preventive spray on wheat seedlings, visual disease rating; conditions: for Test F rating (% disease control): 100 = 100% disease control; for pest or weed control at 200 µg/mL: Parastagonospora nodorum, in Triticum aestivum, 192 h, read-out: Test F rating (% disease control)
[5] = system: Puccinia recondita f. sp. tritici; experiment: Test I: wheat leaf rust, preventive spray on wheat seedlings, visual disease rating; conditions: for Test I rating (% disease control): wheat leaf rust, 100 = 100% disease control; for pest or weed control at 200 µg/mL: 192 h, read-out: Test I rating (% disease control)
[6] = system: Septoria tritici; experiment: Test G: wheat leaf blotch, preventive spray on wheat seedlings, visual disease rating; conditions: for Test G rating (% disease control): wheat leaf blotch, 100 = 100% disease control; for pest or weed control at 200 µg/mL: Zymoseptoria tritici, in Triticum aestivum, 504 h, read-out: Test G rating (% disease control)
[7] = system: Erysiphe graminis f sp. tritici; experiment: Test J: wheat powdery mildew, preventive spray on wheat seedlings, visual disease rating; conditions: for Test J rating (% disease control): wheat powdery mildew, 100 = 100% disease control; for pest or weed control at 200 µg/mL: Blumeria graminis, in Triticum aestivum, 192 h, read-out: Test J rating (% disease control)
[8] = curative, 0 = no control relative to controls
[9] = 0 = no control relative to controls
[10] = Septoria glume blotch, 0 = no control relative to controls
[11] = preventive, 0 = no control relative to controls
[12] = preventive spray, 0 = no control
[13] = Septoria glume blotch on wheat, preventive spray, 0 = no control

SMILES | Test H rating (% disease control) [1, 8] | Test C rating (% disease control) [2, 9] | Test B rating (% disease control) [3, 9] | Test F rating (% disease control) [4, 10] | Test I rating (% disease control) [5, 11] | Test G rating (% disease control) [6, 9] | Test J rating (% disease control) [7, 9] | Test H rating (% disease control) ([1]; curative spray, 0 = no control) | Test C rating (% disease control) [2, 12] | Test B rating (% disease control) [3, 12] | Test F rating (% disease control) [4, 13] | Test I rating (% disease control) [5, 12] | Test G rating (% disease control) [6, 12] | Test J rating (% disease control) [7, 12] | further results
Cc1nn(C)c(Oc2ncc(C(F)(F)F)cc2Cl)c1-c1ccc(F)cc1Br [compound 261] | 0% | 0% | 0% | 0% | 0% | 0% | 47% | – | – | – | – | – | – | – | –
Cc1nn(C)c(Nc2c(F)cc(C#N)cc2F)c1-c1ccc(F)cc1F [compound 290] | 0% | 99% | 100% | 87% | 100% | 100% | 100% | – | – | – | – | – | – | – | –
Cc1nn(C)c(Oc2ccc([N+](=O)[O-])cc2F)c1-c1ccc(F)cc1Cl [compound 20] | – | – | – | – | – | – | – | 79% | 99% | 100% | 100% | 100% | 100% | 99% | –
Cc1nn(C)c(Nc2c(F)cccc2F)c1-c1c(F)cccc1F [compound 247] | 0% | 99% | 100% | 60% | 99% | 100% | 100% | – | – | – | – | – | – | – | –
Cc1nn(C)c(Oc2ccc(Br)c(C#N)c2)c1-c1c(F)cc(F)cc1F [compound 225] | 0% | 0% | 65% | 0% | 79% | 99% | 98% | – | – | – | – | – | – | – | –
Cc1nn(C)c(Nc2c(F)cc(F)cc2Cl)c1-c1ccc(F)cc1Br [Compound 292, 4-(2-bromo-4-fluorophenyl)-N-(2-chloro-4,6-difluorophenyl)-1,3-dimethyl-1H-pyrazol-5-amine] | – | – | – | – | – | – | – | – | – | – | – | – | – | – | pest or weed control at 200 µg/mL [1]: 92%; pest or weed control at 200 µg/mL [2]: 99%; pest or weed control at 200 µg/mL [3]: 100%; pest or weed control at 200 µg/mL [4]: 96%; pest or weed control at 200 µg/mL [5]: 100%; pest or weed control at 200 µg/mL [6]: 100%; pest or weed control at 200 µg/mL [7]: 100%
Cc1nn(C)c(Oc2c(F)cc([N+](=O)[O-])cc2F)c1-c1c(F)cc(F)cc1F [Compound 54, 5-(2,6-Difluoro-4-nitrophenoxy)-1,3-dimethyl-4-(2,4,6-trifluorophenyl)-1H-pyrazole] | – | – | – | – | – | – | – | – | – | – | – | – | – | – | pest or weed control at 200 µg/mL [1]: 0%; pest or weed control at 200 µg/mL [2]: 0%; pest or weed control at 200 µg/mL [3]: 96%; pest or weed control at 200 µg/mL [4]: 0%; pest or weed control at 200 µg/mL [5]: 95%; pest or weed control at 200 µg/mL [6]: 41%; pest or weed control at 200 µg/mL [7]: 95%
COc1cc(F)c(-c2c(C)nn(C)c2Nc2ccc(OC)cc2OC)c(F)c1 [compound 51] | – | – | – | – | – | – | – | 0% | 0% | 100% | 0% | 89% | 100% | 78% | –
COc1ccc(Nc2c(-c3c(F)cc(C#N)cc3F)c(C)nn2C)cc1F [compound 113] | – | – | – | – | – | – | – | 8% | 47% | 99% | 0% | 95% | 100% | 48% | –
